Measurements reported in US7446106B2, “Pyridylfurans and pyrroles as Raf kinase inhibitors” (SmithKline Beecham plc, priority 2001, dated 2008).

How the values were obtained:
[1] = tested on: HFF (normal human foreskin fibroblasts); assay: Methylene blue growth inhibition assay (Assay 2), HFF; format: cell-based; settings: Fibroblast, 72 h, B-Raf wt, Ras wt, 3 days, read-out: IC50 cell growth, HFF
SKMEL2 (human melanoma) = assay: Methylene blue growth inhibition assay (Assay 2), SKMEL2; format: cell-based; settings: SK-MEL-2, 72 h, B-Raf wt, [Q61R]N-Ras, 3 days, read-out: IC50 cell growth, SKMEL2
A375P (human melanoma) = assay: Methylene blue growth inhibition assay (Assay 2), A375P; format: cell-based; settings: 72 h, B-Raf V599E, Ras wt, 3 days, read-out: IC50 cell growth, A375P
B-Raf = B-Raf (Homo sapiens, UniProt P15056); assay: Fluorescence anisotropy kinase binding assay (Assay 1)
Sequence of B-Raf (P15056 whole entry): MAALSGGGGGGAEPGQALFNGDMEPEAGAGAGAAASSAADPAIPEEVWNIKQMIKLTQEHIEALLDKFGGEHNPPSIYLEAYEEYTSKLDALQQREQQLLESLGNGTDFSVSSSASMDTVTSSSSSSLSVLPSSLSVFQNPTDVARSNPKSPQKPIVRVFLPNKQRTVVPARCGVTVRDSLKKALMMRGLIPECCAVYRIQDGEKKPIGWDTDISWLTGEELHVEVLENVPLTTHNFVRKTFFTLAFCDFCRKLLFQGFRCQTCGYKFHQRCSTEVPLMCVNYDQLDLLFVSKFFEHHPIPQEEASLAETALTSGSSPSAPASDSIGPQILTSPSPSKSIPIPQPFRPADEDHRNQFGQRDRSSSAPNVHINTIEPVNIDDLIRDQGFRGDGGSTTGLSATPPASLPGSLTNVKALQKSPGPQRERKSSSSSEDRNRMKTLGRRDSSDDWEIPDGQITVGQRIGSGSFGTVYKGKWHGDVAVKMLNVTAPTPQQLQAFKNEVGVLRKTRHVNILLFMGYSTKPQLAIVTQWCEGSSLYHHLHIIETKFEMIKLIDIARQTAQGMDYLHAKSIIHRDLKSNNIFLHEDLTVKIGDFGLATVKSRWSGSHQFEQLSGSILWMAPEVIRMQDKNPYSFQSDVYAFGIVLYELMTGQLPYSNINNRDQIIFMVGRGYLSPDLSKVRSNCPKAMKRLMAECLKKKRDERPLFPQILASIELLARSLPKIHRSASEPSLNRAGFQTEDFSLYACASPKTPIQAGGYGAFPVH
Description: The activity of compounds of formula (I) as B-Raf inhibitors may be determined by the following in vitro assay:
Fluorescence Anisoptrophy Kinase Binding Assay
The concentration of kinase enzyme should preferably be >1×Kf. The concentration of fluorescent ligand required will depend on the instrumentation used, and the fluorescent and physicochemical properties. The concentration used must be lower than the concentration of kinase enzyme, and preferably less than half the kinase enzyme concentration. A typical protocol is:
All compounds are serially diluted in DMSO, then by a one step dilution into buffer of comparison, 50 mM HEPES, […] pH7.5, 1 mM CHAPS, 10 mM MgCL2, for the assay.
B-Raf Enzyme concentration: 1 nM
Fluorescent ligand concentration: 0.5 nM
Test compound concentration: 0.5 nM-100 uM
Components incubated in 10 ul final volume in LJL HE 384 type B black microtitre plate until equilibrium reached (Over 3 h, up to 30 h)
Fluorescence anisotropy read in an LJL Acquest fluorescence reader.
Definitions: Ki=dissociation constant for inhibitor binding
• Kf=dissociation constant for fluorescent ligand binding
The fluorescent ligand is the following compound:
which is derived from 5-[2(4aminomethylphenyl)-5-pyridin-4-yl-1H-imidazolyl-4-yl]-2-chlorophenol and rhodamine green.

[2] = tested on: Colo201 (human colon carcinoma); assay: XTT 72 hr growth inhibition (Assay 3), Colo201; format: cell-based; settings: COLO 201, colorectal cancer, B-Raf status ND, Ras ND, read-out: IC50 cell viability, Colo201
Description: XTT 72 Hr Growth Inhibition Protocol for Mammalian Cultured Cells (Assay 3)
Human diploid foreskin fibroblasts (HFF) or human colon carcinoma (Colo 201) cells were grown in Dulbecco's modified Eagle's medium (DMEM) (kvitrogen/Life Technologies) containing 10% fetal bovine serum (FBS) and the antibiotics penicillin (100 Units/ml) and streotomycin (100 microgramnis/ml) (Invitrogen/Life Technologies). Growth was at 37° C. in humidified 5% CO2 incubators in 75 cm^2 plastic flasks. Cells were harvested using 0.25% trypsin/1 mM ethylenediaminetetraacetic acid (EDTA), resuspended in growth medium, and counted using a hemocytometer. Flat-bottomed 96-well plates were seeded with 2×10^3 cells/well in a volume of 200 ul from trypsinized exponentially growing cultures. To “blank” wells, growth medium was added with no additions. Cells were incubated overnight to permit attachment.
Next day, medium from wells that contained cells was replaced with 180 microliters of fresh medium. Appropriate dilutions of test compounds were added to the wells from stock soloutions of compound dissolved in dimethyl sulfoxide (DMSO); final DMSO concentration in all wells was 0.2%. […] Absorbance at 450 nm was then determined using a 96-well UV plate reader (Molecular Devices). Under these conditions, absorbance of untreated control cells at […] was at least 1.0 optical density unit/ml. […]

SKMEL3 (human melanoma) = assay: Methylene blue growth inhibition assay (Assay 2), SKMEL3; format: cell-based; settings: SK-MEL3, 72 h, B-Raf V599E, Ras wt, 3 days, read-out: IC50 cell growth, SKMEL3
[3] = tested on: Colo205 (colon carcinoma); assay: Methylene blue growth inhibition assay (Assay 2), Colo205; format: cell-based; settings: Homo sapiens, COLO 205, 72 h, colorectal cancer, B-Raf V599E, Ras wt, 3 days, read-out: IC50 cell growth, Colo205

- IC50 (SKMEL2 (human melanoma)): > 1400 nM
- IC50 (A375P (human melanoma)): 2300 nM
- Kd (B-Raf): 3 nM
- IC50 [2]: 4.5 µM
- IC50 (SKMEL3 (human melanoma)): 890 nM
- IC50 [3]: 9.4 µM
SMILES: CN(C)CCOc1ccc(-c2cc(-c3ccc(Cl)c(O)c3)c(-c3ccncc3)o2)cc1 [Example 3, 2-Chloro-5-{5-[4-(2-dimethylamino-ethoxy)-phenyl]-2-pyridin-4-yl-furan-3-yl}-phenol]
- IC50 [1]: > 30 µM
